Measurements from patent US7671085B2, “Non-steroidal farnesoid X receptor modulators and methods for the use thereof” (The Salk Institute for Biological Studies, priority 2002, dated 2010).

What was measured:
[1] = target: T1, FXR ligand-binding domain (Homo sapiens, UniProt Q96RI1); assay: FRET-based coactivator binding assay (SRC-1 peptide recruitment); format: biochemical
T1 sequence (Q96RI1 262-486 limits assumed): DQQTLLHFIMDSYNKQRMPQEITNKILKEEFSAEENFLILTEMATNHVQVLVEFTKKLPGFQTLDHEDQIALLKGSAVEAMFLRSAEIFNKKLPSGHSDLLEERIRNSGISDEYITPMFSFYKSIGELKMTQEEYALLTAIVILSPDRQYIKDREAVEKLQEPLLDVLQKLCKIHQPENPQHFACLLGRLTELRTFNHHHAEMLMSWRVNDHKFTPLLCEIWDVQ
Excerpt: To determine if the compounds identified as ligands could promote the association of FXR with co-activators in vitro, a fluorescence resonance energy transfer (FRET)-based coactivator binding assay was employed (see, for example, Makishima et al. (1999), supra, Urizar et al. (2002). A natural product that lowers cholesterol as an antagonist ligand for FXR. Science. 296(5573), 1703-6). This assay relies on an agonist-induced interaction between the nuclear receptor and its coactivator bringing two fluorogenic partners together resulting in the nuclear receptor ligand-dependent FRET.

[2] = system: IBABP mRNA in HT29-FXRFL cells; assay: Northern blot of IBABP mRNA in HT29 stable cell lines; format: cell-based, Human; details: for concentration for maximal induction of IBABP mRNA: overnight treatment
Procedure: HepG2 or HT29-derived cell lines were typically cultured in medium containing superstripped FBS for 24 hr before the addition of a ligand or DMSO (vehicle) for an additional 24-48 hr. Total RNA was isolated using TRIzol reagent and was resolved (10 μg/lane) on a 1% agarose, 2.2 M formaldehyde gel, transferred to a nylon membrane (Hybond N^+; Amersham Biosciences, Inc.), and cross-linked to the membrane with UV light.
cDNA probes were radiolabeled with [α-^32P]dCTP using the highprime labeling kit (Amersham Biosciences, Inc.). Membranes were hybridized using the QuikHyb hybridization solution (Stratagene, La Jolla, Calif.) according to the manufacturer's protocol. Blots were normalized for variations of RNA loading by hybridization to a control probe, either, 18 S ribosomal cDNA, or the ribosomal protein 36B4. The RNA levels were quantitated using a PhosphorImager (ImageQuant software; Molecular Dynamics, Inc., Sunnyvale, Calif.) in addition to being exposed to X-ray film.
Human colon cells HT29 (FXR null until differentiated) were infected with retroviral vectors that expressed either FXR constructs and the puromycin-resistant gene or the puromycin-resistant gene alone. Puromycin resistant cells were isolated and pooled cell populations were propagated that harbored either the vector alone (HT29-BABE), overexpressed FXR full length (HT29-FXRFL), a non-functional FXR truncated at the AF2 region (HT29-FXR-AF2), or a constitutively active FXR that has the VP16 activation domain fused N-terminal of the protein (HT29-VP16-FXR). Confirmation of the successful establishment of the different stable cell lines was established via northern blot analysis of FXR message levels in the cells.
These observations verify the usefulness of this colon cell model system for studying the induction of FXR target genes.
The ability of the novel compounds identified herein to induce IBABP gene expression in this cell system was also examined. Total RNA from HT29 stable cells treated overnight with fexaramine, fexarine and fexarene was probed for IBABP gene expression.

mouse FXR and human RXR = target: T2, mouse FXR and human RXR (Mus musculus, UniProt Q60641); assay: CV-1 transient transfection reporter gene assay, TK minimal promoter with ECRE or ER-8 FXRE; format: cell-based; details: CV-1 cells; for concentration at which maximal activity is achieved: ECRE and ER-8 reporters; for activation of ECRE FXRE reporter: six copies of ECRE, TK minimal promoter; for activation of ER-8 FXRE reporter: two copies of ER-8, TK minimal promoter
T2 construct: expressed in transfected cells; host or cells: CV-1 cells
T2 sequence (Q60641 1-488): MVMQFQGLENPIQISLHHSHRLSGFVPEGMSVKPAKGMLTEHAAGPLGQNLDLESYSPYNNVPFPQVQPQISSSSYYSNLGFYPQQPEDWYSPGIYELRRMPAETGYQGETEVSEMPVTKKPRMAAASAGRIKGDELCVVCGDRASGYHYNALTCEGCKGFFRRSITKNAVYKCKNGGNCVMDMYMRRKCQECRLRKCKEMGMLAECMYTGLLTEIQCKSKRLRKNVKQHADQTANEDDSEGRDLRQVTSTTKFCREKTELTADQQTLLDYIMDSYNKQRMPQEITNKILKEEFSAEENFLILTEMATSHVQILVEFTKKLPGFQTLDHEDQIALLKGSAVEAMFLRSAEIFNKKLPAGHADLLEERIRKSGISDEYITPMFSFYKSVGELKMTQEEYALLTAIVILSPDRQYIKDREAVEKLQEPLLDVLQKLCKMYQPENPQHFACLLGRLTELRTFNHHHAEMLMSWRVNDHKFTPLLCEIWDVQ
T2 sequence (P19793 1-462 partner): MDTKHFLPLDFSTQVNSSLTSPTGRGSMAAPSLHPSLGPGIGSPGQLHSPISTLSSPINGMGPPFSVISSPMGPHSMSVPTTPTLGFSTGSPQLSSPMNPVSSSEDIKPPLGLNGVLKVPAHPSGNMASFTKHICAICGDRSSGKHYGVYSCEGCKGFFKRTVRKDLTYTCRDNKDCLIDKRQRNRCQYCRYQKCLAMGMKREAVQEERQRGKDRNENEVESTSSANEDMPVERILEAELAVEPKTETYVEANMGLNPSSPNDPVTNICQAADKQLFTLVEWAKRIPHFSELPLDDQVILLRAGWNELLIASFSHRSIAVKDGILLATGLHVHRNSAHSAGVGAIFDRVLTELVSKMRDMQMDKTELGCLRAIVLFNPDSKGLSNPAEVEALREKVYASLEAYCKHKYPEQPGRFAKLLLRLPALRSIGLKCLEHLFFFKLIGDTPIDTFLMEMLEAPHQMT
Procedure: The ability of these compounds to activate the receptor in a number of different cell-based reporter gene assays was then determined. […] CV-1 cells were transiently transfected with an expression plasmid for mouse FXR and human RXR with a thymidine kinase (TK) minimal promoter reporter vector containing either no copies or six copies of the ecdysone response element (ECRE), a well-characterized FXR response element (FXRE). In addition, two copies of the recently identified FXRE everted repeat separated by 8 nucleotides (ER-8) was also studied (see, for example, Laffitte et al. (2000). Identification of the DNA binding specificity and potential target genes for the farnesoid X-activated receptor. J Biol Chem. 275(14), 10638-47; Kast et al. (2002). Regulation of multidrug resistance-associated protein 2 (ABCC2) by the nuclear receptors pregnane X receptor, farnesoid X-activated receptor, and constitutive androstane receptor. J Biol Chem. 277(4), 2908-15).

[3] = HT29-BABE or HT29-FXR-AF2 cell lines

SMILES	EC50 [1] [nM]	induction of IBABP mRNA, in words [2, 3]	induction of IBABP mRNA, in words ([2]; HT29-FXRFL cells)	concentration for maximal induction of IBABP mRNA ([2]; HT29-FXRFL cells) [µM]	concentration at which maximal activity is achieved (mouse FXR and human RXR) [µM]	activation of ECRE FXRE reporter (mouse FXR and human RXR) [fold]	activation of ER-8 FXRE reporter (mouse FXR and human RXR) [fold]
COC(=O)C=Cc1cccc(N(Cc2ccc(C=Cc3ccccc3)cc2)C(=O)C2CCCCC2)c1 [Compound 121]	~255	No induction	induced expression of the IBABP mRNA	1	1	100	4
COC(=O)/C=C/c1cccc(N(Cc2ccc(-c3ccc(N(C)C)cc3)cc2)C(=O)C2CCCCC2)c1 [Compound 259]	255	No induction	induced expression of the IBABP mRNA	1	1	100	4
COC(=O)/C=C/c1cccc(N(Cc2ccc(-c3ccc4c(c3)OCO4)cc2)C(=O)C2CCCCC2)c1 [Compound 244]	222	No induction	induced expression of the IBABP mRNA	1	1	100	4
